Measurements from patent US20130261108A1, “COMPOSITIONS AND METHODS FOR MODULATING FARNESOID X RECEPTORS” (IRM LLC, priority 2010, published 2013).
pEC50: −log10 of the molar value.

These compounds were tested against T1, human Farnesoid X Receptor (FXR) ligand binding domain (Homo sapiens, UniProt Q96RI1) (assay: Human GST-FXR LBD co-activator interaction assay (FXR HTRF assay)). Conditions: GST-FXR LBD with biotin-labeled SRC-1 peptide, FRET/HTRF, 2.5 hours at room temperature; response relative to GW4064; read-out: FXR coactivator interaction assay (HTRF) (EC50).
T1 construct: purchased Invitrogen
T1 sequence (Q96RI1 193-472 isoform Q96RI1-2): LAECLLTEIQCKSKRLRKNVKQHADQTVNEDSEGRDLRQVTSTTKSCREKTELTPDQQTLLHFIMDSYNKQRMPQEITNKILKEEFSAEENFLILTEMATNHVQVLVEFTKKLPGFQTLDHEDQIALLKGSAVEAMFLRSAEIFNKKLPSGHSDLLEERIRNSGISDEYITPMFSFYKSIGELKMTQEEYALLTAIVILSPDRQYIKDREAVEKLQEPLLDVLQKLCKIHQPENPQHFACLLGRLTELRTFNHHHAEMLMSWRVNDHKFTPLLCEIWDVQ
Format: biochemical
Source text: Human GST-FXR LBD Co-Activator Interaction Assay.
The FXR HTRF assay is a biochemical assay measuring the interaction between FXR and a coactivator protein (SRC1). The ligand-induced interaction with a coactivator protein is a critical step in transcriptional activation by FXR. Thus, this is an assay designed to measure FXR agonist activity of compounds.
The ligand-dependent interaction between GST-FXR LBD and a peptide derived from Steroid Receptor Coactivator-1 (SRC-1) was monitored by Fluorescence Resonance Energy Transfer (FRET). […] Test compounds (in DMSO solution) and detection reagents (anti-GST-Cryptate labeled antibody and Streptavidin-XL665 conjugate; CisBio) were added in assay buffer containing 50 mM KF. Plates are incubated at room temperature in the dark for 2.5 hours before reading on an Envision (PerkinElmer) at 665 nm and 590 nm.
A negative control (without Streptavidin-XL665) was run with each assay and represented the background fluorescence. A reference FXR agonist, GW4064, was included in each experiment as positive control. The efficacy of each test compound was compared to that of GW4064. At each concentration, the relative activity of the test compound was expressed as Response %=(Rsample−RDMSO)/(Rpositive−RDMSO), where Rsample is the HTRF response (expressed in Delta F %) for the test compound, Rpositive is the maximal response for GW4064 at saturating concentrations, and RDMSO is the response for DMSO control. The EC50 values were calculated using GraphPad Prism (GraphPad Software) using non-linear regression curve fit (log(agonist) vs. response−variable slope (four parameters)).
A pEC50 of 6.61 was found for O=C(O)c1ccc2nc(N3CCC(OCc4c(C5CCCCC5)noc4C4CC4)CC3)sc2c1 [Example 2-15, 2-{4-[(3-cyclohexyl-5-cyclopropyl-1,2-oxazol-4-yl)methoxy]piperidin-1-yl}-1,3-benzothiazole-6-carboxylic acid] in this work.
A pEC50 of 6.58 was found for O=C(O)c1ccc2nc(N3CCC(OCc4c(C5CCCC5)noc4C4CC4)CC3)sc2c1 [Example 2-16, 2-{4-[(3-cyclopentyl-5-cyclopropyl-1,2-oxazol-4-yl)methoxy]piperidin-1-yl}-1,3-benzothiazole-6-carboxylic acid] in this work.
A pEC50 of 6.37 was found for O=C(O)c1ccc2nc(N3CCC(OCc4c(C5CC6CCC5C6)noc4C4CC4)CC3)sc2c1 (stereo not drawn) [Example 2-17, 2-{4-[(3-{bicyclo[2.2.1]heptan-2-yl}-5-cyclopropyl-1,2-oxazol-4-yl)methoxy]piperidin-1-yl}-1,3-benzothiazole-6-carboxylic acid] in this work.
A pEC50 of 6.61 was found for CCOC(=O)c1ccc2nc(N3CCCC(OCc4c(-c5ccccc5OC(F)(F)F)noc4C4CC4)CC3)sc2c1 (stereo not drawn) [Example 3-1A, ethyl 2-[4-({5-cyclopropyl-3-[2-(trifluoromethoxy)phenyl]-1,2-oxazol-4-yl}methoxy)azepan-1-yl]-1,3-benzothiazole-6-carboxylate] in this work.
A pEC50 of 8.15 was found for O=C(O)c1ccc2nc(N3CCCC(OCc4c(-c5ccccc5OC(F)(F)F)noc4C4CC4)CC3)sc2c1 (stereo not drawn) [Example 3-1B, 2-[4-({5-cyclopropyl-3-[2-(trifluoromethoxy)phenyl]-1,2-oxazol-4-yl}methoxy)azepan-1-yl]-1,3-benzothiazole-6-carboxylic acid] in this work.
A pEC50 of 6.38 was found for CCOC(=O)c1ccc2nc(N3CCCC(OCc4c(-c5ccccc5C(F)(F)F)noc4C4CC4)CC3)sc2c1 (stereo not drawn) [Example 3-2A, ethyl 2-[4-({5-cyclopropyl-3-[2-(trifluoromethyl)phenyl]-1,2-oxazol-4-yl}methoxy)azepan-1-yl]-1,3-benzothiazole-6-carboxylate] in this work.
A pEC50 of 8.10 was found for O=C(O)c1ccc2nc(N3CCCC(OCc4c(-c5ccccc5C(F)(F)F)noc4C4CC4)CC3)sc2c1 (stereo not drawn) [Example 3-2B, 2-[4-({5-cyclopropyl-3-[2-(trifluoromethyl)phenyl]-1,2-oxazol-4-yl}methoxy)azepan-1-yl]-1,3-benzothiazole-6-carboxylic acid] in this work.
A pEC50 of 6.02 was found for CCOC(=O)c1ccc2nc(N3CCC(OCc4c(-c5c(Cl)cccc5Cl)noc4C(C)C)CC3)sc2c1 [Example 4A, Ethyl 2-(4-((3-(2,6-dichlorophenyl)-5-isopropylisoxazol-4-yl)methoxy)piperidin-1-yl)benzo[d]thiazole-6-carboxylate] in this work.
A pEC50 of 8.15 was found for CC(C)c1onc(-c2c(Cl)cccc2Cl)c1COC1CCN(c2nc3ccc(C(=O)O)cc3s2)CC1 [Example 4B, 2-(4-((3-(2,6-Dichlorophenyl)-5-isopropylisoxazol-4-yl)methoxy)piperidin-1-yl)benzo[d]thiazole-6-carboxylic acid] in this work.
A pEC50 of 7.36 was found for O=C(O)c1ccc2nc(N3CCC(OCc4c(C5CCCCC5C(F)(F)F)noc4C4CC4)CC3)sc2c1 (stereo not drawn) [Example 5, 2-[4-({5-cyclopropyl-3-[2-(trifluoromethyl)cyclohexyl]-1,2-oxazol-4-yl}methoxy)piperidin-1-yl]-1,3-benzothiazole-6-carboxylic acid] in this work.
A pEC50 of 6.88 was found for N#Cc1ccc2nc(N3CCC(OCc4c(-c5c(Cl)cccc5Cl)noc4C4CC4)CC3)sc2c1 [Example 6-1, 2-(4-((5-cyclopropyl-3-(2,6-dichlorophenyl)isoxazol-4-yl)methoxy)piperidin-1-yl)benzo[d]thiazole-6-carbonitrile] in this work.
A pEC50 of 7.72 was found for NC(=O)c1ccc2nc(N3CCC(OCc4c(-c5c(Cl)cccc5Cl)noc4C4CC4)CC3)sc2c1 [Example 6-2, 2-(4-((5-cyclopropyl-3-(2,6-dichlorophenyl)isoxazol-4-yl)methoxy)piperidin-1-yl)benzo[d]thiazole-6-carboxamide] in this work.
A pEC50 of 7.82 was found for Clc1cccc(Cl)c1-c1noc(C2CC2)c1COC1CCN(c2nc3ccc(-c4nn[nH]n4)cc3s2)CC1 [Example 6-3, 4-(((1-(6-(2H-tetrazol-5-yl)benzo[d]thiazol-2-yl)piperidin-4-yl)oxy)methyl)-5-cyclopropyl-3-(2,6-dichlorophenyl)isoxazole] in this work.
A pEC50 of 5.66 was found for N#Cc1ccc2nc(N3CCC(OCc4c(-c5ccccc5OC(F)(F)F)noc4C4CC4)CC3)sc2c1 [Example 7-1, 2-[4-({5-cyclopropyl-3-[2-(trifluoromethoxy)phenyl]-1,2-oxazol-4-yl}methoxy)piperidin-1-yl]-1,3-benzothiazole-6-carbonitrile] in this work.
A pEC50 of 6.79 was found for NC(=O)c1ccc2nc(N3CCC(OCc4c(-c5ccccc5OC(F)(F)F)noc4C4CC4)CC3)sc2c1 [Example 7-2, 2-[4-({5-cyclopropyl-3-[2-(trifluoromethoxy)phenyl]-1,2-oxazol-4-yl}methoxy)piperidin-1-yl]-1,3-benzothiazole-6-carboxamide] in this work.
A pEC50 of 6.36 was found for FC(F)(F)Oc1ccccc1-c1noc(C2CC2)c1COC1CCN(c2nc3ccc(-c4nn[nH]n4)cc3s2)CC1 [Example 7-3, 2-[4-({5-cyclopropyl-3-[2-(trifluoromethoxy)phenyl]-1,2-oxazol-4-yl}methoxy)piperidin-1-yl]-6-(2H-1,2,3,4-tetrazol-5-yl)-1,3-benzothiazole] in this work.
A pEC50 of 6.57 was found for NC(=O)c1cc(F)c2nc(N3CCC(OCc4c(-c5ccccc5OC(F)(F)F)noc4C4CC4)CC3)sc2c1 [Example 7-4, 2-[4-({5-cyclopropyl-3-[2-(trifluoromethoxy)phenyl]-1,2-oxazol-4-yl}methoxy)piperidin-1-yl]-4-fluoro-1,3-benzothiazole-6-carboxamide] in this work.
A pEC50 of 6.08 was found for N#Cc1ccc2nc(N3CCC(OCc4c(-c5c(F)cccc5Cl)noc4C4CC4)CC3)sc2c1 [Example 7-5, 2-(4-{[3-(2-chloro-6-fluorophenyl)-5-cyclopropyl-1,2-oxazol-4-yl]methoxy}piperidin-1-yl)-1,3-benzothiazole-6-carbonitrile] in this work.
A pEC50 of 6.81 was found for Fc1cccc(Cl)c1-c1noc(C2CC2)c1COC1CCN(c2nc3ccc(-c4nn[nH]n4)cc3s2)CC1 [Example 7-6, 2-(4-{[3-(2-chloro-6-fluorophenyl)-5-cyclopropyl-1,2-oxazol-4-yl]methoxy}piperidin-1-yl)-6-(2H-1,2,3,4-tetrazol-5-yl)-1,3-benzothiazole] in this work.
A pEC50 of 6.34 was found for COC(=O)CNC(=O)c1ccc2nc(N3CCC(OCc4c(-c5ccccc5OC(F)(F)F)noc4C4CC4)CC3)sc2c1 [Example 8-1A, Methyl 2-(2-(4-((5-cyclopropyl-3-(2-(trifluoromethoxy)phenyl)isoxazol-4-yl)methoxy)piperidin-1-yl)benzo[d]thiazole-6-carboxamido)acetate] in this work.
A pEC50 of 7.70 was found for O=C(O)CNC(=O)c1ccc2nc(N3CCC(OCc4c(-c5ccccc5OC(F)(F)F)noc4C4CC4)CC3)sc2c1 [Example 8-1B, 2-(2-(4-((5-cyclopropyl-3-(2-(trifluoromethoxy)phenyl)isoxazol-4-yl)methoxy)piperidin-1-yl)benzo[d]thiazole-6-carboxamido)acetic acid] in this work.
A pEC50 of 7.06 was found for O=C(NCCS(=O)(=O)O)c1ccc2nc(N3CCC(OCc4c(-c5ccccc5OC(F)(F)F)noc4C4CC4)CC3)sc2c1 [Example 9, 2-(2-(4-((5-cyclopropyl-3-(2-(trifluoromethoxy)phenyl)isoxazol-4-yl)methoxy)piperidin-1-yl)benzo[d]thiazole-6-carboxamido)ethanesulfonic acid] in this work.
A pEC50 of 7.05 was found for O=C(O)c1ccc2nc(N3CCC(OCc4c(COc5c(Cl)cccc5Cl)noc4C4CC4)CC3)sc2c1 [Example 10-1, 2-(4-{[5-cyclopropyl-3-(2,6-dichlorophenoxymethyl)-1,2-oxazol-4-yl]methoxy}piperidin-1-yl)-1,3-benzothiazole-6-carboxylic acid] in this work.
A pEC50 of 6.45 was found for O=C(O)c1ccc2nc(N3CCC(OCc4c(CC5CCCCC5)noc4C4CC4)CC3)sc2c1 [Example 10-2, 2-(4-{[3-(cyclohexylmethyl)-5-cyclopropyl-1,2-oxazol-4-yl]methoxy}piperidin-1-yl)-1,3-benzothiazole-6-carboxylic acid] in this work.
